According to patent US11504370B2, “Treatment of brain cancer” (Array BioPharma Inc., priority 2012, dated 2022):
Where two headings read alike, the source gives them in different places.

Tests used:
[1] = Brain pharmacokinetic (PK) study in mice; type: in vivo; settings: for Kp at 1 h / Kp at 2 h / Kp at 4 h / concentration at 1 h / concentration at 2 h / concentration at 4 h / concentration at 0.5 h / Kp at 0.5 h: mouse; for Kp at 1 h / Kp at 2 h / Kp at 4 h / Kp at 0.5 h: brain / plasma, ARRY-380 75 mg/kg, read-out: brain:plasma ratio
Procedure: The mice were separated into groups and their PK was studied at 4 time points (0.5, 1, 2 and 4 hours, 4 mice per group per timepoint). The animals were euthanized by CO2 inhalation at the time points. Whole blood was drawn (300 μL) by cardiac puncture and […] eppendorf tube containing ethylenediaminetetraacetic acid (“EDTA”) ([…]). The samples were centrifuged, and the plasma was decanted and frozen at -20° C. until delivered to analytical chemistry. The brains were collected. The animals were perfused with 5-10 mL of saline, and the brains were removed, weighed and placed into a fast prep tube for DMPK analysis.

[2] = test system: NCI-N87 gastric carcinoma cells; assay: Inhibition of NCI-N87 gastric carcinoma xenograft growth in mice implanted intracranially; type: in vivo; settings: 75 mg/kg PO BID; intracranial NCI-N87, nude BALB/c mice; FIG. 3
Procedure: Anesthetized nude BALB/c female mice (Taconic Laboritories Inc., Germantown, N.Y.) were inoculated with human tumor cells (NCI-N87 gastric carcinoma cells, NCI, Bethesda, Md.) intracranially at lamba suture. 5×10^5 cells in saline were implanted via intracranial injection. The mice were separated into three groups (N=12); vehicle (acidified 30% Captisol®, pH about 4.5), 50 mg/kg lapatanib PO BID (30% Captisol®), and 75 mg/kg N4-(4-([1,2,4]triazolo[1,5-a]pyridin-7-yloxy)-3-methylphenyl)-N6-(4,4-dimethyl-4,5-dihydrooxazol-2-yl)quinazoline-4,6-diamine PO BID (acidified 30% Captisol®, pH about 4.5). Dosing began two days after implantation. The dose may have been reduced as necessary if drug-related weight loss (approximately 5%) was observed. The mice were monitored twice daily for general health and behavioral/neurological effects, and body weights (BW) were determined twice weekly. At first sign of neurological problem or body weight loss of greater than 20%, the mice were euthanized by CO2 inhalation. Brain and plasma were collected for analyses.

[3] = test system: NCI-N87 gastric carcinoma cells; assay: Anti-tumor efficacy on N87 human gastric cancer in murine xenograft model (subcutaneous); type: in vivo, mice; settings: subcutaneous NCI-N87, N=8
Procedure: Nude nu/nu female mice (NCI, Bethesda, Md.) were split into five groups (N=8). Tumor cells (NCI-N87 gastric carcinoma cells, NCI, Bethesda, Md. 1×10^7) were implanted into the mice via subcutaneous injection (100 μL) directly on the right flank. To ensure good tumor take, the cells should be greater than 90% viable (thus, the intitial cell suspension of 1×10^7 cells/mL were injected for 1×10^6 cells injected/100 The tumors were allowed to grow to 150±50 mm^3. The tumor size was measured, and the mice were weighed. The mice were administered vehicle (30% Captisol®, 150 g in 500 mL DI water, PO, BID), lapatanib (50 mg/kg, PO, BID, 30% Captisol®), lapatanib (100 mg/kg, PO, BID, 30% Captisol®), N4-(4-([1,2,4]triazolo[1,5-a]pyridin-7-yloxy)-3-methylphenyl)-N6-(4,4-dimethyl-4,5-dihydrooxazol-2-yl)quinazoline-4,6-diamine (50 mg/kg, PO, QD, 30% Captisol) and N4-(4-([1,2,4]triazolo[1,5-a]pyridin-7-yloxy)-3-methylphenyl)-N6-(4,4-dimethyl-4,5-dihydrooxazol-2-yl)quinazoline-4,6-diamine (100 mg/kg, PO, QD, 30% Captisol). The tumor volume was measured. The number of partial responses in the mice was as follows: lapatanib (50 mg/kg) 0, lapatanib (100 mg/kg) 1, ARRY-380 (50 mg/kg) 1, ARRY-380 (100 mg/kg) 4.

[4] = Dissolution testing at pH 6.5 in phosphate buffer; type: physicochemical; settings: pH 6.5 phosphate buffer, 37° C., about 240 minutes
Procedure: Dissolution testing was performed at a pH of 6.5 in phosphate buffer. […] The solid dispersion was suspended in H2O and added directly to the buffer solution at 37° C. […]

[5] = Physicochemical analysis: hygroscopicity
[6] = female, nude BALB/c, 1 hour, single PO dose, lapatanib 50 mg/kg
[7] = female, nude BALB/c, 2 hour, single PO dose, lapatanib 50 mg/kg
[8] = female, nude BALB/c, 4 hour, single PO dose, lapatanib 50 mg/kg
[9] = female, nude BALB/c, 1 hour, single PO dose, lapatanib 50 mg/kg, ARRY-380 75 mg/kg (AR00440993 = metabolite), perfused brain, read-out: Average Brain Concentration
[10] = female, nude BALB/c, 2 hour, single PO dose, lapatanib 50 mg/kg, ARRY-380 75 mg/kg (AR00440993 = metabolite), perfused brain, read-out: Average Brain Concentration
[11] = female, nude BALB/c, 4 hour, single PO dose, lapatanib 50 mg/kg, ARRY-380 75 mg/kg (AR00440993 = metabolite), perfused brain, read-out: Average Brain Concentration
[12] = 0.5 hour, single PO dose, lapatanib 50 mg/kg, ARRY-380 75 mg/kg (AR00440993 = metabolite of ARRY-380), nude female BALB/c mice
[13] = 1 hour, single PO dose, lapatanib 50 mg/kg, ARRY-380 75 mg/kg (AR00440993 = metabolite of ARRY-380), nude female BALB/c mice
[14] = 2 hour, single PO dose, lapatanib 50 mg/kg, ARRY-380 75 mg/kg (AR00440993 = metabolite of ARRY-380), nude female BALB/c mice
[15] = 4 hour, single PO dose, lapatanib 50 mg/kg, ARRY-380 75 mg/kg (AR00440993 = metabolite of ARRY-380), nude female BALB/c mice
[16] = female, nude BALB/c, 0.5 hour, single PO dose, lapatanib 50 mg/kg
[17] = female, nude BALB/c, 0.5 hour, single PO dose, lapatanib 50 mg/kg, ARRY-380 75 mg/kg (AR00440993 = metabolite), perfused brain, read-out: Average Brain Concentration
[18] = 50 mg/kg PO (lapatanib BID, ARRY-380 QD)
[19] = 100 mg/kg PO (lapatanib BID, ARRY-380 QD)

Cc1cc(Nc2ncnc3ccc(NC4=NC(C)(CO)CO4)cc23)ccc1Oc1ccn2ncnc2c1 (centres unmarked) [AR00440993, (2-((4-((4-([1,2,4]triazolo[1,5-a]pyridin-7-yloxy)-3-methylphenyl)amino)quinazolin-6-yl)amino)-4-methyl-4,5-dihydrooxazol-4-yl)methanol]
Average Brain Concentration ([1]; 0.5 hour, single PO dose, lapatanib 50 mg/kg, ARRY-380 75 mg/kg (AR00440993 = metabolite), perfused brain): BLQ
brain penetration ([1]; compared with lapatanib or ARRY-380, mice, after PO ARRY-380): significantly higher
Kp at 1 h [1, 6]: 2.08
Kp at 2 h [1, 7]: 0.48
Kp at 4 h [1, 8]: 1.31
concentration at 1 h [1, 9]: 28.9 ng/g
concentration at 2 h [1, 10]: 35.8 ng/g
concentration at 4 h [1, 11]: 40 ng/g
concentration at 0.5 h ([1]; plasma, 0.5 hour, single PO dose, lapatanib 50 mg/kg, ARRY-380 75 mg/kg (AR00440993 = metabolite of ARRY-380), nude female BALB/c mice, read-out: Average Plasma Concentration): 20.2 µg/mL
concentration at 1 h ([1]; plasma, 1 hour, single PO dose, lapatanib 50 mg/kg, ARRY-380 75 mg/kg (AR00440993 = metabolite of ARRY-380), nude female BALB/c mice, read-out: Average Plasma Concentration): 67.3 µg/mL
concentration at 2 h ([1]; plasma, 2 hour, single PO dose, lapatanib 50 mg/kg, ARRY-380 75 mg/kg (AR00440993 = metabolite of ARRY-380), nude female BALB/c mice, read-out: Average Plasma Concentration): 134 µg/mL
concentration at 4 h ([1]; plasma, 4 hour, single PO dose, lapatanib 50 mg/kg, ARRY-380 75 mg/kg (AR00440993 = metabolite of ARRY-380), nude female BALB/c mice, read-out: Average Plasma Concentration): 70.4 µg/mL

Cc1cc(Nc2ncnc3ccc(NC4=NC(C)(C)CO4)cc23)ccc1Oc1ccn2ncnc2c1 [ARRY-380, N4-(4-([1,2,4]Triazolo[1,5-a]pyridin-7-yloxy)-3-methylphenyl)-N6-(4,4-dimethyl-4,5-dihydrooxazol-2-yl)quinazoline-4,6-diamine]
phospho-ErbB2/total ErbB2 in the brain [2]: significantly decreases
Average Plasma Concentration [1, 12]: 3350 ng/mL
Average Plasma Concentration [1, 13]: 6420 ng/mL
Average Plasma Concentration [1, 14]: 6010 ng/mL
Average Plasma Concentration [1, 15]: 2640 ng/mL
Kp at 0.5 h [1, 16]: 0.048
Kp at 1 h [1, 6]: 0.048
Kp at 2 h [1, 7]: 0.021
Kp at 4 h [1, 8]: 0.019
concentration at 0.5 h [1, 17]: 122 ng/g
concentration at 1 h [1, 9]: 116 ng/g
concentration at 2 h [1, 10]: 134 ng/g
concentration at 4 h [1, 11]: 42.1 ng/g
number of partial responses in the mice [3, 18]: 1
number of partial responses in the mice [3, 19]: 4

CCO.Cc1cc(Nc2ncnc3ccc(NC4=NC(C)(C)CO4)cc23)ccc1Oc1ccn2ncnc2c1.Cc1cc(Nc2ncnc3ccc(NC4=NC(C)(C)CO4)cc23)ccc1Oc1ccn2ncnc2c1 [Example 21, N4-(4-([1,2,4]triazolo[1,5-a]pyridin-7-yloxy)-3-methylphenyl)-N6-(4,4-dimethyl-4,5-dihydrooxazol-2-yl)quinazoline-4,6-diamine freebase hemi-ethanolate]
AUC for the free drug species [4]: 5490 ng·h/mL
Cmax for the free drug species [4]: 0.44 µg/mL

CS(=O)(=O)CCNCc1ccc(-c2ccc3ncnc(Nc4ccc(OCc5cccc(F)c5)c(Cl)c4)c3c2)o1 [Lapatanib, lapatinib, reference compound]
Average Plasma Concentration [1, 12]: 1910 ng/mL
Average Plasma Concentration [1, 13]: 4310 ng/mL
Average Plasma Concentration [1, 14]: 1740 ng/mL
Average Plasma Concentration [1, 15]: 1940 ng/mL
Kp at 0.5 h [1, 16]: 0.026
Kp at 1 h [1, 6]: 0.022
Kp at 2 h [1, 7]: 0.039
Kp at 4 h [1, 8]: 0.038
concentration at 0.5 h [1, 17]: 44.9 ng/g
concentration at 1 h [1, 9]: 90.8 ng/g
concentration at 2 h [1, 10]: 57.4 ng/g
concentration at 4 h [1, 11]: 65.4 ng/g
number of partial responses in the mice [3, 18]: 0
number of partial responses in the mice [3, 19]: 1

Cc1cc(Nc2ncnc3ccc(NC4=NC(C)(C)CO4)cc23)ccc1Oc1ccn2ncnc2c1 [REF]
Hygroscopicity (% wt change at 80% RH) [5]: <1% wt change at 80% RH
